Data set [1] is described as follows: Persistence of intact biocide under fermentation tank conditions. The following applies: conditions in the fermentation tank; based on laboratory work. The class given is physicochemical. How it is done:
Under the conditions in the fermentation tank, DBNPA is expected to last intact only about 1-2 hours, based on laboratory work. The stillage, i.e., fermented unevaporated product (post “beer tank”) of distillation, is centrifuged, and dried (e.g., about 1 hour at about 250-300° F.), then the mixture is pumped over to a final tank where it is called the DDGS. DDGS is about ⅓ mass of the starting raw material for corn. The chemistry of DBNPA is not expected to endure and survive the centrifugation and heat of drying prior to entering distillers dried grains with solubles (DDGS) stage. In the corn-to-ethanol process, for example, DBNPA is expected to degrade to carbon dioxide and water vapor, and, as such, would have low environmental impact. […] The application of DBNPA avoids the use of antibiotics, which can remain stable throughout the process. The use of DBNPA makes the use of antibiotics unnecessary. The use of DBNPA is more economical since the cost of antibiotics (as the only treatment widely employed) can be relatively high and costly to the fermentation. […]

The next data set deals with Lactobacillus plantarum. Kind of data set: Corn mash ethanol fermentation infected with L. plantarum, treated with nonoxidizing biocide. It counts as cell-based. As to conditions: fermentation conditions typical of fuel-ethanol industry. The protocol: (§1) Experiments were conducted to evaluate the effectiveness of a nonoxidizing biocide as an antimicrobial agent for control of Lactobacillus infections in ethanol fermentation. The nonoxidizing biocide was BRONAM® 20 (20% 2,2-dibromo-3-nitrilopropionamide). The lactobacilli was L. plantarum. The yeast was Saccharomyces cereviseae. Corn mashes containing approximately 30% (w/w) dry solids were used.
For slurry preparation, the moisture of ground corn was determined gravimetrically using a moisture balance by measuring the mass loss that occurred upon drying. The amount of corn, deionized (DI) water, and enzyme needed to prepare 160 g of corn slurry at a total dry solids concentration of 30% (w/w) for each replicate was determined. […]
For fermentation, once the mash was cooled, the entire contents (approximately 160 g) of each Labomat beaker were transferred to a sterile 250-ml Erlenmeyer flask. The masses of the mash and flasks were recorded, and the mass of mash transferred to the fermentation flasks was calculated. […]
The L. plantarum culture was prepared for inoculation by growing throughout the day in 100-ml of MRS broth. […] The initial concentration of the bacteria was determined by plating serial dilutions of the culture on MRS agar containing cycloheximide and incubating at 32° C. for 2 days before counting colonies. […]

Data set [2] deals with yeast (Saccharomyces cerevisiae). The experiment in a line: Effect of biocide on fermentation yeast in corn fermentation. The class given is cell-based. The protocol: as §1
A 0.2-g/ml suspension of yeast (Saccharomyces cerevisiae; Ethanol Red; Fermentis, Marcq-en-Baroeul, France) was prepared in a sterile 250-ml flask. This suspension was incubated and mixed for 20 minutes at 40° C. before inoculation into the fermentation flasks. […]
Each flask was mixed with an overhead agitator and samples were collected for the following measurements: yeast cell counts, final concentrations of substrates (glucose, DP2, DP3, and DP4+, where “DPx” represent glucose oligomers with “x” subunits), fermentation products (ethanol, glycerol, lactic acid, and acetic acid), total dry solids, and dissolved dry solids, and the density of the beer liquid phase. […] Samples were prepared for yeast cell counts by diluting at a factor of 100 in deionized water and staining with methylene blue to estimate viability then counted microscopically using a hemacytometer. The final concentrations of substrates and fermentation products were determined by HPLC. […]

In a further data set the test system is Lactobacillus fermentans. The experiment in a line: Kull synergism test in 25% strength MRS broth, quantities producing endpoints. The class given is cell-based. The following applies: Nisin alone, 37° C., 24 hours. How it is done:
Lactobacilli MRS broth (25% strength) was prepared and dispensed in 10 ml amounts into test tubes and autoclaved for 20 minutes at 121° C. The biocides were added to the test tubes in the desired concentrations, and then 100 microliters of an overnight broth of Lactobacillus fermentans were added to the respective test tubes and incubated at 37° C. for 24 hours.
When the sum of QA/Qa and QB/Qb is greater than one, antagonism is indicated and when the sum is equal to one, additivity is indicated. When the sum of this value is less than one, synergism exists.

For the compound `N#CC(Br)(Br)C(N)=O` [2,2-dibromo-3-nitrilopropionamide], the “time the biocide lasts intact” value in data set [1] was in the range of 1 to 2 h. In the data set on Lactobacillus plantarum, the “effect on lactobacilli” value was “kills the bacteria (lactobacilli)”. Besides, the “effect on yeast” value in data set [2] is given as “does not kill the yeast”.

As for Nisin, the “Qa, concentration of Compound A acting alone which produced an endpoint” value in the data set on Lactobacillus fermentans (Example 2) and in the data set on Lactobacillus fermentans (Example 3) was 1.0 ppm in each case.
